Tests used:
Lac A (LacA) = tested on: T1, Lac A (LacA); test: absorbance at […] nm, Lineweaver-Burk; format: biochemical, Trichoderma harzianum; conditions: 0.1 M sodium citrate, pH 4.5; ABTS 0.025-0.4 mM; O2 co-substrate
T1 construct: 63 kDa by SDS-PAGE

Lac B (LacB) = tested on: T2, Lac B (LacB); test: absorbance at […] nm, Lineweaver-Burk; format: biochemical, Trichoderma harzianum; conditions: 0.1 M sodium citrate, pH 4.5; ABTS 0.025-0.4 mM; O2 co-substrate
T2 construct: 48 kDa by SDS-PAGE

Km (Lac A (LacA)): 100 µM
Km (Lac B (LacB)): 64 µM
Compound: CCn1c(=NN=c2sc3cc(S(=O)(=O)O)ccc3n2CC)sc2cc(S(=O)(=O)O)ccc21 [ABTS, 2,2ʹ-Azinobis-(3-ethylbenzothiazoline-6-sulfonic acid)]
